Consider 1 compound from US20250282802A1, “P[…] AND METHODS” (priority 2020, published 2025).

The Emax is the size of the effect at its maximum, as opposed to the concentration needed. A word on the IC50: it is the concentration needed to halve the response being measured. A lower IC50 goes with greater potency in that assay. As a reminder, the MIC is the lowest concentration found to suppress growth.

One test relates to D54 (glioblastoma). Put plainly: Cytotoxicity profiling (Alamar Blue), D54. It is filed as cell-based. The settings on record: Homo sapiens, 72-hour treatment. The method, then: FIG. 8. Cytotoxicity of pantaphos across various cancer cell lines. Assays were conducted as described (mBio. 2021 Feb. 2; 12(1):e03402-20), using the Alamar Blue method with 72-hour treatment using Raptinal ([…]) as Dead cell control; n=3. Cell seeding densities: CT26 (colon carcinoma) 2000 c/w; HOS (osteosarcoma) 2500 c/w; ES-2 (ovarian carcinoma), HCT-116 (colorectal carcinoma), A-549 (lung carcinoma), A-172 (glioblastoma), D54 (glioblastoma), U87 (glioblastoma), T98G (glioblastoma), SK-ML-28 (melanoma), MCF-7 (breast cancer), AM38 (glioblastoma) and MDA-MB-231 (breast cancer) 3000 c/w; U118MG (malignant glioma) 4000 c/w; HepG2 (liver cancer) 8000 c/w. c/w=cells per well. […]
Cell culture cytotoxicity screening. The compounds were evaluated for their ability to kill cancer cell lines in culture, using HOS (osteosarcoma); ES-2 (ovarian cancer); HCT 116 (colon cancer); A549 (lung carcinoma); and A172 (glioma) cells. Human skin fibroblast cells (HFF-1) were also assessed. […] 72 hours post-treatment, cell viability was assessed using the Alamar Blue method (http://www.bio-rad-antibodies.com/measuring-cytotoxicity-proliferation-spectrophotometry-fluorescence-alamarBlue.html). […] Conversion of Alamar Blue was measured with a plate reader (SpectraMax M3; Molecular Devices) by fluorescence (excitation wavelength: 555 nm; emission wavelength: 585 nm; cutoff 570 nm; autogain). […]
In general terms: The colour change of resazurin is a common sign of viable cells or microbes.

A further test concerns HepG2 (liver cancer). Nature of the test: Cytotoxicity profiling (Alamar Blue), HepG2. It is filed as cell-based, human. On the procedure:
FIG. 8. Cytotoxicity of pantaphos across various cancer cell lines. Assays were conducted as described (mBio. 2021 Feb. 2; 12(1):e03402-20), using the Alamar Blue method with 72-hour treatment using Raptinal ([…]) as Dead cell control; n=3. Cell seeding densities: CT26 (colon carcinoma) 2000 c/w; HOS (osteosarcoma) 2500 c/w; ES-2 (ovarian carcinoma), HCT-116 (colorectal carcinoma), A-549 (lung carcinoma), A-172 (glioblastoma), D54 (glioblastoma), U87 (glioblastoma), T98G (glioblastoma), SK-ML-28 (melanoma), MCF-7 (breast cancer), AM38 (glioblastoma) and MDA-MB-231 (breast cancer) 3000 c/w; U118MG (malignant glioma) 4000 c/w; HepG2 (liver cancer) 8000 c/w. c/w=cells per well. IC50 and Emax values shown in Table 6 were extracted from the raw data plotted in FIG. 8.
Cell culture cytotoxicity screening. The compounds were evaluated for their ability to kill cancer cell lines in culture, using HOS (osteosarcoma); ES-2 (ovarian cancer); HCT 116 (colon cancer); A549 (lung carcinoma); and A172 (glioma) cells. Human skin fibroblast cells (HFF-1) were also assessed. Cells were seeded (3000 cells well^−1 for ES-2, HCT 116, A549 and A172; 4000 cells well^−1 for HFF-1 and 2500 cells well^−1 for HOS) in a 96-well plate and allowed to attach overnight. Cells were treated with pantaphos in water. The concentrations of the tested compounds were 5 nM to 100 μM (1% water final; 100 μl well^−1). Raptinal (50 μM) was used as a dead control. On each plate, five technical replicates per compound were performed. 72 hours post-treatment, cell viability was assessed using the Alamar Blue method (http://www.bio-rad-antibodies.com/measuring-cytotoxicity-proliferation-spectrophotometry-fluorescence-alamarBlue.html). […] Conversion of Alamar Blue was measured with a plate reader (SpectraMax M3; Molecular Devices) by fluorescence (excitation wavelength: 555 nm; emission wavelength: 585 nm; cutoff 570 nm; autogain). Percentage death was determined by normalizing to water-treated cells and Raptinal-treated cells. […]

Test [1] concerns Staphylococcus aureus ATCC 29213. Nature of the test: Antibacterial bioassay (MIC), Staphylococcus aureus. The test is classed as cell-based. To be noted: CLSI. On the procedure: (§1) Antibacterial bioassays. Susceptibility testing for the ESKAPE pathogens and Salmonella enterica LT2 was performed using a Kirby-Bauer method as outlined by the Clinical and Laboratory Standards Institute (CLSI). For rich media bioassays, Mueller Hinton Broth 2 (MH-2, Sigma-Aldrich, 90922) was used for all strains except 1% BHI was supplemented for Enterococcus faecalis ATCC 19433. For minimal media bioassays, glucose-MOPS minimal medium was used. Briefly, overnight bacterial cultures were sub-cultured and inoculated into 5 mL top agar (0.7% agar) for final concentration of 5×10^5 CFU/mL. Then, 20 μL of a compound 2-fold dilution series (200, 100, 50, 25, 12.5, 6.25 μM in water) was spotted on 6 mm diameter blank paper discs (BD BBL™ 231039). Control discs received 20 μL of 50 mg/mL kanamycin. Plates were incubated at 35° C. for 20-24 hours. […] Sensitivity of the IPTG-inducible phosphonate uptake strain WM6242 to pantaphos was tested using a disk diffusion assay. Plates containing growth medium were overlayed with 5 mL of top agar (0.7% agar) inoculated with 100 μL (OD600=0.8) of the phosphonate-specific E. coli indicator strain (WM6242) with or without addition of 1 mM IPTG. WM6242 is engineered with an IPTG-inducible, non-specific phosphonate uptake system (phnCDE). […]

The subject of test [2] is Klebsiella pneumoniae ATCC 27736. Nature of the test: Antibacterial bioassay (MIC), Klebsiella pneumoniae. The test is classed as cell-based. To be noted: CLSI. The method, then:
as §1

Test [3] concerns Escherichia coli ATCC 25922. Nature of the test: Antibacterial bioassay (MIC), Escherichia coli ATCC 25922. The test is classed as cell-based. The settings on record: CLSI. On the procedure:
as §1

Like-named read-outs stand apart in the source and are kept apart here.

With `O=C(O)/C=C(\C(=O)O)C(O)P(=O)(O)O` (stereo not shown) [pantaphos, 2-(hydroxy(phosphono)methyl)maleate], the Emax was in the range of 46 to 58% in the test with D54 (glioblastoma) and 71 to 77% with HepG2 (liver cancer) (Homo sapiens, HepG2, Alamar Blue, 72-hour treatment). For the same compound, the “sensitivity of the cell line to the compound, in words” value with HepG2 (liver cancer) (HepG2) is “sensitive”. This compound also came in with an IC50 in the test on HepG2 (liver cancer) (Homo sapiens, HepG2, Alamar Blue, 72-hour treatment (Table 6)) of 4.22 ± 0.57 µM. Further, the MIC in test [1] (ATCC29213, Mueller-Hinton 2 medium, read-out: MIC, Rich medium) was more than 200 µM; in test [1] (ATCC29213, glucose-MOPS minimal medium, read-out: MIC, Minimal medium), more than 200 µM; in test [2] (ATCC27736, Mueller-Hinton 2 medium, read-out: MIC, Rich medium), more than 200 µM; in test [2] (ATCC27736, glucose-MOPS minimal medium, read-out: MIC, Minimal medium), more than 200 µM; in test [3] (ATCC25922, Mueller-Hinton 2 medium, read-out: MIC, Rich medium), more than 200 µM; in test [3] (ATCC25922, glucose-MOPS minimal medium, read-out: MIC, Minimal medium), more than 200 µM.
